Measured values published in patent publication US10259848B2, “Compositions and methods comprising hydrocarbon-stapled polypeptides” (Dana-Farber Cancer Institute, Inc., priority 2008, dated 2019).
Read-outs that look alike come from different tables or passages of the source. Positions of bridges follow the written chain, without caps; N, C: chain ends. Non-standard residues stand in square brackets, D forms with d. Residues, ends and D or L forms follow the SMILES beside them. No end group written: not given here. S5 = C=CCCC[C@](C)(N)C(=O)O; Nle = CCCC[C@H](N)C(=O)O

Columns and labels:
FIGURE 16F = assay: FIGURE 16F
Text: Table printed on a drawing sheet, FIGURE 16F

FIGURE 16C = assay: FIGURE 16C
Text: Table printed on a drawing sheet, FIGURE 16C
First reader's note: The sheet prints two blocks (626-662 and 638-673 series) under one head; per the description the half-lives are in the presence of chymotrypsin at pH 7.

syncytia formation = assay: HIV syncytial formation assay; format: cell-based, HIV-1
Procedure: Functional assays can also be used to evaluate the modified polypeptides activity. In culture, multinucleated giant cells or “syncytia” form as a result of direct cell-cell fusion between HIV-1-infected and uninfected CD4-positive cells. In the syncytia formation assay, an indicator cell line expressing the CD4 receptor, and a fusogenic cell line that lacks the CD4 receptor but contains HIV-1 proteins on the surface, fuse to generate 70-100 multinucleated giant cells in culture within 48 h. Syncytia are then counted using an inverted microscope. The ability of stabilized alpha helix of gp41 (SAH-gp41) compounds to inhibit syncytia formation in a dose-responsive fashion is used as a functional measure of fusion inhibition, for which IC50s can be determined and compared with peptides T20 and T649 (Brenner, T. J., et al. The Lancet, 1991. 337(8748): p. 1001-1005; Madani, N., et al., Journal of Virology, 2007. 81(2): p. 532-538).
The compounds of the invention were assayed for inhibition of syncytial formation using methods well known to those skilled in the art. Equal amounts of either T20/gp41(638-673) or SAH-gp41(626-645)A were added to the media.

[1] = Circular dichroism, calculated α-helical content; format: physicochemical; conditions: for α-helical content: comparative CD spectra, 20-mer residues 626-645
Procedure: The α-helicity of stapled modified polypeptides can be compared to their unmodified counterparts by circular dichroism. CD spectra can be obtained on a Jasco J-710 or Aviv spectropolarimeter at 20° C. using the following standard measurement parameters: wavelength, 190-260 nm; step resolution, 0.5 nm; speed, […]; accumulations, 10; response, 1 sec; bandwidth, 1 nm; path length, 0.1 cm. The α-helical content of each peptide is calculated by dividing the mean residue ellipticity [Θ]222obs by the reported [Θ]222obs for a model helical peptide (Forood, B., E. J. Feliciano, and K. P. Nambiar, PNAS, 1993. 90(3): p. 838-842; J. Martin Scholtz, Biopolymers, 1991. 31(13): p. 1463-1470; Lawless, M. K., et al., Biochemistry, 1996. 35(42): p. 13697-13708) or using, for example, the Aviv machine using CDNN software developed by Brohm in order to deduce five different secondary structure fractions (helix, parallel and antiparallel beta-sheet, beta-turn and random coil). Protein Engineering, 1992. 5(3); p. 191-195
To optimize the activity of tSAH-gp41 peptides, an alternative strategy based upon inserting one or more hydrocarbon staples into the full-length gp41-HR-2 constructs was pursued (FIG. 11, 12).

pepsin = assay: Protease exposure under acidic conditions: pepsin, pH 2; conditions: pepsin solution (protease exposure under acidic conditions)
HIV-1 HXBc2 = assay: Luciferase-based HIV infectivity assay, HXBc2; format: cell-based; conditions: compared to T20
Procedure: Recombinant HIV-1 bearing the envelope glycoproteins from three distinct HIV-1 strains, HXBc2, ADA, and HXBc2P 3.2, and a negative control virus bearing the amphotropic murine leukemia virus (A-MLV) envelope glycoproteins, were evaluated.

SAH-gp41(626-662)(A,F): doubly stapled gp41(626-662) HIV-1 fusion inhibitor peptide (LTWAEWDAEINNYTSLIHSLIEESQNQAEKNAQELLE; not fully specified (bridges); also: doubly stapled, places not given here)
half-life (FIGURE 16F): 34 h | half-life (FIGURE 16C): 5.02 h

gp41(626-645): unstapled 20-mer truncation of T649v consisting of residues 626-645 ([Nle]TW[Nle]EWDREINNYTSLIHSL) [reference compound]
inhibition of syncytia formation (words) (syncytia formation): only modest anti-syncytial activity | α-helical content [1]: 20%

enfuvirtide
half-life at 25 μM (pepsin): 4 min | calculated α-helical content ([1]; CD spectra at physiologic pH): ~25%

CCCC[C@H](NC(C)=O)C(=O)N[C@H](C(=O)N[C@@H](Cc1c[nH]c2ccccc12)C(=O)N[C@@]1(C)CCCC=CCCC[C@@](C)(C(=O)N[C@@H](CCC(=O)O)C(=O)N[C@H](C(=O)N[C@@H](CC(N)=O)C(=O)N[C@@H](CC(N)=O)C(=O)N[C@@H](Cc2ccc(O)cc2)C(=O)N[C@H](C(=O)N[C@@H](CO)C(=O)N[C@@H](CC(C)C)C(=O)N[C@H](C(=O)N[C@@H](Cc2c[nH]cn2)C(=O)N[C@@H](CO)C(=O)N[C@@H](CC(C)C)C(N)=O)[C@@H](C)CC)[C@@H](C)O)[C@@H](C)CC)NC(=O)[C@H](CC(=O)O)NC(=O)[C@H](Cc2c[nH]c3ccccc23)NC(=O)[C@H](CCC(=O)O)NC1=O)[C@@H](C)O [SAH-gp41(626-645)(A)] (Ac-[Nle]TW[S5]EWD[S5]EINNYTSLIHSL-NH2; staple 4-8; N-terminus and C-terminus assumed)
anti-HXBc2 activity (HIV-1 HXBc2): significant anti-HXBc2 activity | inhibition of syncytia formation (words) (syncytia formation): markedly enhanced inhibitory activity | inhibition of syncytia formation (words) (syncytia formation; listed as SAH-gp41(626-645)A): inhibited syncytial formation more so than unmodified control polypeptides | α-helical content [1]: 48%
